Tests used:
[1] = system: MCF7 (breast cancer) cells; test: MTT cytotoxicity assay in MCF7 breast cancer cells; format: cell-based; conditions: 65 hours incubation, read-out: IC50, viability of MCF7 cells from the MTT assay
Method: The cyctoxicity of compounds was determined in MCF 7 (breast cancer) cells.
MCF7 cells were grown in RPMI 1640 media with 10 nM estrogen and 1 mM insulin. Cells were tyripsinized and resuspended at a density of 2.2×10^4 cells per mL. 500 μL of this suspension was added to each well in a 24 well plate. The plates were incubated at 37° C. and 5% CO2 atmosphere overnight. The media was changed, and plates were dosed in triplicate with compound dissolved in DMSO. Cells were dosed not to exceed 0.5% DMSO in solution. Cells were dosed to a final concentration of 100, 50, 25, 12.5, and 6.25 μM of compound. 5-Flurouracil was used as a positive control and dosed in the same manner. Plates were incubated for 65 hours prior to the addition of MTT solution. 500 μL of a 193 μg/mL MTT and media solution was added to each well. Plates were incubated for 3 hours. The MTT solution was removed and 500 μL of DMSO was added to each well. Cells were imaged using GS 800 Bio Rad scanner and Quality One Software. IC50 curves were determined by plotting viability verses compound concentration. Kaleidagraph software was used to calculate the R value for each logarithmic curve fitting.

[2] = system: Non-Small Cell Lung HOP-92; test: NCI in vitro cell line screen (SRB), single dose; format: cell-based, human; conditions: Non-Small Cell Lung HOP-92, single dose of 10 μM
Method: (§1) Four of the preliminary lead compounds: three nucleosides (JT-1-10, VAL-1-15/42, VAL-1-16) and one nucleobase (KB-1-17)—were submitted to the National Cancer Institute for the in vitro cell line screening project (IVCLSP). The screening consisted in the evaluation of this compound against the 60 cell lines at a single dose of 10 μM.
(§2) The human tumor cell lines of the cancer screening panel are grown in RPMI 1640 medium containing 5% fetal bovine serum and 2 mM L-glutamine. For a typical screening experiment, cells are inoculated into 96 well microtiter plates in 100 μL at plating densities ranging from 5,000 to 40,000 cells/well depending on the doubling time of individual cell lines. After cell inoculation, the microtiter plates are incubated at 37° C., 5% CO2, 95% air and 100% relative humidity for 24 h prior to addition of experimental drugs.
(§3) After 24 h, two plates of each cell line are fixed in situ with TCA, to represent a measurement of the cell population for each cell line at the time of drug addition (Tz). Experimental drugs are solubilized in dimethyl sulfoxide at 400-fold the desired final maximum test concentration and stored frozen prior to use. At the time of drug addition, an aliquot of frozen concentrate is thawed and diluted to twice the desired final maximum test concentration with complete medium containing 50 μg/ml gentamicin. Additional four, 10-fold or ½ log serial dilutions are made to provide a total of five drug concentrations plus control. Aliquots of 100 μl of these different drug dilutions are added to the appropriate microtiter wells already containing 100 μl of medium, resulting in the required final drug concentrations.
(§4) Following drug addition, the plates are incubated for an additional 48 h at 37° C., 5% CO2, 95% air, and 100% relative humidity. For adherent cells, the assay is terminated by the addition of cold TCA. Cells are fixed in situ by the gentle addition of 50 μl of cold 50% (w/v) TCA (final concentration, 10% TCA) and incubated for 60 minutes at 4° C. The supernatant is discarded, and the plates are washed five times with tap water and air dried. Sulforhodamine B (SRB) solution (100 μl) at 0.4% (w/v) in 1% acetic acid is added to each well, and plates are incubated for 10 minutes at room temperature. After staining, unbound dye is removed by washing five times with 1% acetic acid and the plates are air dried. Bound stain is subsequently solubilized with 10 mM trizma base, and the absorbance is read on an automated plate reader at a wavelength of 515 nm. For suspension cells, the methodology is the same except that the assay is terminated by fixing settled cells at the bottom of the wells by gently adding 50 μl of 80% TCA (final concentration, 16% TCA). Using the seven absorbance measurements [time zero, (Tz), control growth, (C), and test growth in the presence of drug at the five concentration levels (Ti)], the percentage growth is calculated at each of the drug concentrations levels. Percentage growth inhibition is calculated as:
(§5) [(Ti−Tz)/(C−Tz)]×100 for concentrations for which Ti>/=Tz
(§6) [(Ti−Tz)/Tz]×100 for concentrations for which Ti<Tz.
(§7) Three dose response parameters are calculated for each experimental agent. Growth inhibition of 50% (GI50) is calculated from [(Ti−Tz)/(C−Tz)]×100=50, which is the drug concentration resulting in a 50% reduction in the net protein increase (as measured by SRB staining) in control cells during the drug incubation. The drug concentration resulting in total growth inhibition (TGI) is calculated from Ti=Tz. The LC50 (concentration of drug resulting in a 50% reduction in the measured protein at the end of the drug treatment as compared to that at the beginning) indicating a net loss of cells following treatment is calculated from [(Ti−Tz)/Tz]×100=−50. […]

Renal CAKI-1 = test: NCI in vitro cell line screen (SRB), single dose; format: cell-based, human; conditions: Renal CAKI-1, single dose of 10 μM
Method: as §1, §2, §3, §4, §5, §6, §7

CNS SNB-75 = test: NCI in vitro cell line screen (SRB), single dose; format: cell-based, human; conditions: CNS SNB-75, single dose of 10 μM
Method: as §1, §2, §3, §4, §5, §6, §7

Prostate PC-3 = test: NCI in vitro cell line screen (SRB), single dose; format: cell-based, human; conditions: Prostate PC-3, single dose of 10 μM
Method: as §1, §2, §3, §4, §5, §6, §7

Renal A498 = test: NCI in vitro cell line screen (SRB), single dose; format: cell-based, human; conditions: Renal A498, single dose of 10 μM
Method: as §1, §2, §3, §4, §5, §6, §7

Melanoma UACC-62 = test: NCI in vitro cell line screen (SRB), single dose; format: cell-based, human; conditions: Melanoma UACC-62, single dose of 10 μM
Method: as §1, §2, §3, §4, §5, §6, §7

[3] = system: Non-Small Cell Lung NCI-H522; test: NCI in vitro cell line screen (SRB), single dose; format: cell-based, human; conditions: Non-Small Cell Lung NCI-H522, single dose of 10 μM
Method: as §1, §2, §3, §4, §5, §6, §7

Leukemia RPMI-8226 = test: NCI in vitro cell line screen (SRB), single dose; format: cell-based, human; conditions: Leukemia RPMI-8226, single dose of 10 μM
Method: as §1, §2, §3, §4, §5, §6, §7

Renal TK-10 = test: NCI in vitro cell line screen (SRB), single dose; format: cell-based, human; conditions: Renal TK-10, single dose of 10 μM
Method: as §1, §2, §3, §4, §5, §6, §7

Renal UO-31 = test: NCI in vitro cell line screen (SRB), single dose; format: cell-based, human; conditions: Renal UO-31, single dose of 10 μM
Method: as §1, §2, §3, §4, §5, §6, §7

Breast MSF7 = test: NCI in vitro cell line screen (SRB), single dose; format: cell-based, human; conditions: Breast MSF7, single dose of 10 μM
Method: as §1, §2, §3, §4, §5, §6, §7

CNS SF-268 = test: NCI in vitro cell line screen (SRB), single dose; format: cell-based, human; conditions: CNS SF-268, single dose of 10 μM
Method: as §1, §2, §3, §4, §5, §6, §7

γ-H2AX = test: Western blot of drug-treated MCF7 cells detecting double-strand break marker γ-H2AX; format: cell-based; conditions: 4.5 μM, 16 hours, nuclear extract, two trials (FIG. 3)
Method: Vehicle controls were simultaneously prepared by treatment with DMSO.
Nuclear proteins from both the drug-treated and control samples were conducted using NE-PER Nuclear and Cytoplasmic Extraction Kit (Thermo Scientific) using the manufacturer's protocol. In detail, cells were harvested by trypsin-EDTA and centrifuged at 500×g for 5 minutes. The cells were washed to remove traces of trypsin by suspending in 1×PBS, followed by centrifugation at 500×g for 2-3 minutes. The supernatant was removed leaving the cell pellet as dry as possible. A 200 μL volume of ice-cold cytoplasmic extraction reagent I (CER-I), treated Halt™ Protease & Phosphatase Inhibitor Cocktail (Thermo Scientific), was added to the pellet. The cell pellet was suspended by vortexing vigorously for 15 seconds and then incubated on ice for 10 minutes. The mixture is then treated with 11 μL of ice-cold cytoplasmic extraction reagent II (CER-II) and mixed by vortexing on the highest setting for 5 seconds followed by incubation on ice of one minute to allow complete release of cytoplasmic contents. […]
Protein concentration in each sample and control was determined by Bradford Assay using Coomassie Plus™ (Bradford) Assay Kit (Thermo Scientific), applying the manufacturer's instruction. […] The absorbance is then measured at 595 nm using a Synergy 4 plate reader (Biotek). […]

CC(C)(C)C(OCc1cn([C@H]2C[C@H](O)[C@@H](CO)O2)c(=O)[nH]c1=O)c1ccccc1[N+](=O)[O-] (stereo partly shown) [VAL-1-15/27/42, 5-[1-(2-nitrophenyl)-2,2-(dimethyl)propoxymethyl]-2′-deoxyuridine]
IC50 [1]: 42 µM | Growth Percent [2]: 73% | Growth Percent (Renal CAKI-1): 88% | Growth Percent (CNS SNB-75): 84% | Growth Percent (Prostate PC-3): 91%

CC(C)(C)CC(OCc1cn([C@H]2C[C@H](O)[C@@H](CO)O2)c(=O)[nH]c1=O)c1ccccc1 (stereo partly shown) [VAL-1-16, 5-[1-(phenyl)-3,3-(dimethyl)-1-butoxymethyl]-2′-deoxyuridine]
Growth Percent (Renal A498): 92% | Growth Percent (Melanoma UACC-62): 90% | Growth Percent (CNS SNB-75): 92%

CC(C)(C)C(OCc1cn([C@H]2C[C@H](O)[C@@H](CO)O2)c(=O)[nH]c1=O)c1ccccc1 (stereo partly shown) [JT-1-10, 5-[1-(phenyl)-2,2-(dimethyl)-1-propoxymethyl]-2′-deoxyuridine]
IC50 [1]: 188 µM | Growth Percent [3]: 91% | Growth Percent [2]: 89% | Growth Percent (Leukemia RPMI-8226): 90% | Growth Percent (Renal TK-10): 84% | Growth Percent (Renal UO-31): 88% | Growth Percent (CNS SNB-75): 65% | Growth Percent (Breast MSF7): 87%

CC(C)(C)C(OCc1c[nH]c(=O)[nH]c1=O)c1ccccc1[N+](=O)[O-] (stereo not shown) [KB-1-17, 5-[1-(2-nitrophenyl)-2,2-(dimethyl)propoxymethyl]uracil]
IC50 [1]: 81 µM | Growth Percent [2]: 68% | Growth Percent (CNS SF-268): 91% | Growth Percent (Prostate PC-3): 93%

CC(C)(C)C(OCc1cn([C@H]2C[C@H](O)[C@@H](CO)O2)c(=O)[nH]c1=O)c1ccc(C#Cc2ccccc2)cc1[N+](=O)[O-] (stereo partly shown) [VAL-1-36/38, 5-[1-(4-{2-phenylacetylenyl}-2-nitrophenyl)-2,2-(dimethyl)-1-propoxymethyl]-2′-deoxyuridine]
IC50 [1]: 9 ± 1 µM | double-strand break marker γ-H2AX (DNA damage response) (γ-H2AX): causes a DNA damage response

— patent US20160101188A1, “NOVEL NANOCARRIER DELIVERED CANCER CHEMOTHERAPEUTIC AGENTS” (UNIVERSITY OF CINCINNATI, priority 2013, published 2016)
